# According to BindingDB's records for doi:10.1124/mol.60.1.124 (U410, 2001):
# Values joined by “and” are separate entries in the source; they are usually repeats but may differ in a detail not shown here. Equal entries are not always repeated.
# Biological target: T1, Neuropeptide Y receptor type 2 (Rattus norvegicus, UniProt Q9ERC0)
# T1 sequence (Q9ERC0 whole entry): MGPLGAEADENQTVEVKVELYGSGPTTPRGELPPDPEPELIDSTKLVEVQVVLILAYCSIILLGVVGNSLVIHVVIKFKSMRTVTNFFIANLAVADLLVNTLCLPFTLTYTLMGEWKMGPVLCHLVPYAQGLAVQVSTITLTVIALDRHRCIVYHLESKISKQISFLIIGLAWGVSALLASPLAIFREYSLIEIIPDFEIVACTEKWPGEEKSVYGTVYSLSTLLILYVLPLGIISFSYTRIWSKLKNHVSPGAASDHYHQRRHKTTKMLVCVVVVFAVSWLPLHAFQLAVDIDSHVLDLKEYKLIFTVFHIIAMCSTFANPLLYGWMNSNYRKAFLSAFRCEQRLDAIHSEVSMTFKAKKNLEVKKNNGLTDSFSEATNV
row,Compound,Ki
1,O=c1oc2ccccc2c(O)c1C1CC(c2ccc(-c3ccccc3)cc2)Cc2ccccc21 (stereo not drawn) [NSC_41735],1000 nM
2,"CC(=O)N[C@@H](C)C(=O)N[C@@H](CO)C(=O)N[C@@H](CC(C)C)C(=O)N[C@@H](CCCNC(=N)N)C(=O)N[C@@H](Cc1cnc[nH]1)C(=O)N[C@@H](Cc1ccc(O)cc1)C(=O)N[C@@H](CC(C)C)C(=O)N[C@@H](CC(N)=O)C(=O)N[C@@H](CC(C)C)C(=O)N[C@H](C(=O)N[C@H](C(=O)N[C@@H](CCCNC(=N)N)C(=O)N[C@@H](CCC(N)=O)C(=O)N[C@@H](CCCNC(=N)N)C(=O)N[C@@H](Cc1ccc(O)cc1)C(N)=O)[C@@H](C)O)C(C)C [PYY, N-alpha-Ac, 22-36]",1.66 nM and 0.54 nM
3,NC(N)=NCCCC(NC(=O)CC1(CC(=O)N2CCN(C3c4ccccc4NC(=O)c4ccccc43)CC2)CCCC1)C(=O)NCCn1c(=O)n(-c2ccccc2)n(-c2ccccc2)c1=O (stereo not drawn) [NSC_5311024],6.5 nM
